From PubChem BioAssay (NCI)
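Growth conditions: 96-well plates. Treatment: test compound, 48 hours, 5 concentrations. Analysis: linear interpolation between bracketing concentrations; unreached endpoints set to highest concentration. GI50 = concentration required for 50% inhibition of growth. TGI: concentration producing complete growth inhibition.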

Assays:
Assay in all cases: growth of human tumour cells (NCI), 48 h
[1] = system: KM12 colon
[2] = system: RPMI-8226 leukemia
[3] = system: T-47D breast
[4] = system: 786-0 renal
[5] = system: SK-OV-3 ovarian
[6] = system: CAKI-1 renal
[7] = system: BT-549 breast
[8] = system: OVCAR-4 ovarian
[9] = system: MOLT-4 leukemia
[10] = system: NCI-H522 lung
[11] = system: SNB-19 CNS
[12] = system: UACC-257 melanoma
[13] = system: M14 melanoma
[14] = system: SN12C renal
[15] = system: PC-3 prostate
[16] = system: OVCAR-8 ovarian
[17] = system: MALME-3M melanoma
[18] = system: U251 CNS
[19] = system: OVCAR-3 ovarian
[20] = system: SK-MEL-2 melanoma
[21] = system: NCI-H226 lung
[22] = system: SW-620 colon
[23] = system: DU-145 prostate
[24] = system: NCI-H23 lung
[25] = system: SK-MEL-5 melanoma
[26] = system: CCRF-CEM leukemia
[27] = system: UACC-62 melanoma
[28] = system: HCT-15 colon
[29] = system: K-562 leukemia
[30] = system: SF-539 CNS
[31] = system: HCT-116 colon
[32] = system: IGROV1 ovarian
[33] = system: A498 renal
[34] = system: HOP-92 NSCLC
[35] = system: LOX IMVI melanoma
[36] = system: HS 578T breast
[37] = system: MDA-MB-435
[38] = system: HCC-2998 colon
[39] = system: SF-295 CNS
[40] = system: NCI/ADR-RES ovarian
[41] = system: RXF 393 renal
[42] = system: HL-60(TB) leukemia
[43] = system: HOP-62 NSCLC
[44] = system: NCI-H460 lung
[45] = system: EKVX NSCLC
[46] = system: SF-268 CNS
[47] = system: TK-10 renal
[48] = system: SR leukemia
[49] = system: MDA-MB-468 breast
[50] = system: OVCAR-5 ovarian
[51] = system: SNB-75 CNS
[52] = system: HT29 colon
[53] = system: MDA-MB-231 breast
[54] = system: SK-MEL-28 melanoma
[55] = system: UO-31 renal
[56] = system: MCF7 breast
[57] = system: A549 NSCLC
[58] = system: ACHN renal

CCCS(=O)(=O)c1oc(-c2ccc(F)cc2)nc1S(=O)(=O)c1ccc(F)cc1
GI50 [1]: 14.5 µM
TGI [1]: 31 µM
GI50 [2]: 2.22 µM
TGI [2]: 7.44 µM
GI50 [3]: 1.83 µM
TGI [3]: 4.2 µM
GI50 [4]: 1.6 µM
TGI [4]: 3.1 µM
GI50 [5]: 16.3 µM
TGI [5]: 30.9 µM
GI50 [6]: 1.43 µM
TGI [6]: 2.76 µM
GI50 [7]: 1.98 µM
TGI [7]: 3.57 µM
GI50 [8]: 1.86 µM
TGI [8]: 4.04 µM
GI50 [9]: 1.14 µM
TGI [9]: > 100 µM
GI50 [10]: 1.19 µM
TGI [10]: 2.64 µM
GI50 [11]: 15 µM
TGI [11]: 28.2 µM
GI50 [12]: 1.62 µM
TGI [12]: 3.13 µM
GI50 [13]: 1.68 µM
TGI [13]: 3.56 µM
GI50 [14]: 2.62 µM
TGI [14]: 9.51 µM
GI50 [15]: 3.51 µM
TGI [15]: 16.7 µM
GI50 [16]: 2.12 µM
TGI [16]: 4.99 µM
GI50 [17]: 1.49 µM
TGI [17]: 2.83 µM
GI50 [18]: 16.4 µM
TGI [18]: 30.6 µM
GI50 [19]: 1.35 µM
TGI [19]: 2.77 µM
GI50 [20]: 10.4 µM
TGI [20]: 22.7 µM
GI50 [21]: 13 µM
TGI [21]: 34.8 µM
GI50 [22]: 0.685 µM
TGI [22]: 2.17 µM
GI50 [23]: 1.59 µM
TGI [23]: 2.96 µM
GI50 [24]: 1.9 µM
TGI [24]: 4.22 µM
GI50 [25]: 3.32 µM
TGI [25]: 12 µM
GI50 [26]: 0.298 µM
TGI [26]: 1.09 µM
GI50 [27]: 1.68 µM
TGI [27]: 3.11 µM
GI50 [28]: 1.22 µM
TGI [28]: 2.73 µM
GI50 [29]: 1.64 µM
TGI [29]: > 100 µM
GI50 [30]: 1.55 µM
TGI [30]: 2.89 µM
GI50 [31]: 1.6 µM
TGI [31]: 3.49 µM
GI50 [32]: 1.84 µM
TGI [32]: 3.84 µM
GI50 [33]: 17.2 µM
TGI [33]: 31 µM
GI50 [34]: 1.8 µM
TGI [34]: 4.08 µM
GI50 [35]: 1.28 µM
TGI [35]: 2.6 µM
GI50 [36]: 2.33 µM
TGI [36]: 7.43 µM
GI50 [37]: 1.45 µM
TGI [37]: 2.98 µM
GI50 [38]: 4.05 µM
TGI [38]: 15.9 µM
GI50 [39]: 12.6 µM
TGI [39]: 25.5 µM
GI50 [40]: 2.36 µM
TGI [40]: 6.35 µM
GI50 [41]: 1.1 µM
TGI [41]: 2.44 µM
GI50 [42]: 2.17 µM
TGI [42]: > 100 µM
GI50 [43]: 15.7 µM
TGI [43]: 31.1 µM
GI50 [44]: 4.46 µM
TGI [44]: 19.4 µM
GI50 [45]: 1.62 µM
TGI [45]: 3.27 µM
GI50 [46]: 3.18 µM
TGI [46]: 14.7 µM
GI50 [47]: 1.88 µM
TGI [47]: 3.35 µM
GI50 [48]: 1.6 µM
TGI [48]: > 100 µM
GI50 [49]: 1.29 µM
TGI [49]: 2.89 µM
GI50 [50]: 3.48 µM
TGI [50]: 13.7 µM
GI50 [51]: 4.23 µM
TGI [51]: 18.4 µM
GI50 [52]: 2.06 µM
TGI [52]: 4.9 µM
GI50 [53]: 1.65 µM
TGI [53]: 3.04 µM
GI50 [54]: 1.74 µM
TGI [54]: 3.17 µM
GI50 [55]: 1.46 µM
TGI [55]: 2.78 µM
GI50 [56]: 1.3 µM
TGI [56]: 3.08 µM
GI50 [57]: 13.3 µM
TGI [57]: 30.6 µM
GI50 [58]: 1.61 µM
TGI [58]: 2.96 µM
